Source: patent publication US9339554B2, “Tunable, biodegradable linker molecules for transient conjugation of components in drug delivery systems, and drug delivery systems prepared therewith” (CRISTAL DELIVERY B.V., priority 2010, dated 2016)

Experiment: In vitro release of DMS from DMS-prodrug-loaded core-cross-linked polymeric micelles
Type: physicochemical
Details: for 50% release of DMS: physiological conditions, prodrug covalently entrapped in CCL PM
Procedure: The eluent was acetonitril/H2O (23:77, v/v) with a flow rate of 1 mL/min. The sample volume was 7.5 μL. UV detection occurred at 246 nm.
The hydrolysis rate of a specific ester was pH-dependent in its turn, in that at pH 8.4 hydrolysis was accelerated as compared to the hydrolysis rate at pH 7.4. […] The same trend is consistently observed at different pH (i.e. 7.4 and 8.4) and for the different types of micelles (based on HPMAm and HEMAm).

| 50% release of DMS | DMS release rate followed by UPLC (prodrug CCL PM, buffer pH 7.4 / 8.4, 37° C.) | Compound |
| --- | --- | --- |
| ~4 weeks | very slow release | C=C(C)C(=O)OCCSCC(=O)OCC(=O)[C@@]1(O)[C@H](C)CC2[C@@H]3CCC4=CC(=O)C=C[C@]4(C)[C@@]3(F)[C@@H](O)CC21C (stereo partly drawn) [DMSL1, 2-(2-(2-((8S,9R,10S,11S,16R,17R)-9-fluoro-11,17-dihydroxy-10,13,16-trimethyl-3-oxo-6,7,8,9,10,11,12,13,14,15,16,17-dodecahydro-3H-cyclopenta[α]phenanthren-17-yl)-2-oxoethoxy)-2-oxoethylthio)ethyl methacrylate] |
| ~1 weeks | – | C=C(C)C(=O)OCCS(=O)(=O)CC(=O)OCC(=O)[C@@]1(O)[C@H](C)CC2[C@@H]3CCC4=CC(=O)C=C[C@]4(C)[C@@]3(F)[C@@H](O)CC21C (stereo partly drawn) [DMSL3, 2-(2-(2-((8S,9R,10S,11S,16R,17R)-9-fluoro-11,17-dihydroxy-10,13,16-trimethyl-3-oxo-6,7,8,9,10,11,12,13,14,15,16,17-dodecahydro-3H-cyclopenta[α]phenanthren-17-yl)-2-oxoethoxy)-2-oxoethylsulfonyl)ethyl methacrylate] |
